Measurements taken from patent publication US20250186393A1 (SANOFI, priority 2022, published 2025).

How the values were obtained:
[1] = AMEERA-3 safety: treatment-emergent adverse events, safety population; type: in vivo
From the text: Secondary endpoints are defined as follows: • Overall survival: the time interval from the date of randomization to the date of documented death (due to any cause); • Objective response rate: the proportion of participants who have a confirmed complete response (CR) or partial response (PR), as best overall response (BOR) derived from overall response determined by ICR as per RECIST 1.1, from the date of randomization to the date of end of treatment; • Disease control rate: the proportion of participants who have a confirmed CR, PR, stable disease (SD), or Non-CR/Non-PD as BOR determined by ICR as per RECIST 1.1 from the date of randomization to the date of end of treatment; • Clinical benefit rate: the proportion of participants who have a confirmed CR, PR, SD, or Non-CR/Non-PD for at least 24 weeks determined by ICR as per RECIST 1.1, from the date of randomization to the date of end of treatment; • Progression-free survival as per ESR1 status: determined at Cycle 1 Day 1; • Overall safety profile: evaluated by adverse events/serious adverse events and laboratory abnormalities.
Concerning monitoring of adverse events, mention may be made of adverse events of special interest (AESI), who correspond to an adverse event (serious or nonserious) of scientific and medical concern specific to the Sponsor's product or program, for which ongoing monitoring and immediate notification by the Investigator to the Sponsor is required. Such events may require further investigation in order to characterize and understand them. For example: pregnancy of a participant or of a female partner of a participant entered in a study with IMP, symptomatic overdose with IMP, increase in ALT of a grade equal to or greater than 3, or photosensitivity.
The analysis populations were defined as follows: • Enrolled population: all patients who signed the informed consent form. • Intent-to-treat (ITT) population: all patients from the enrolled population and for whom there was a confirmation of successful allocation of a randomization number by Interactive Response Technology (IRT). Patients were analyzed according to the treatment arm assigned at randomization. • Safety population: all patients randomly assigned to study intervention and who took at least one dose of study intervention. Patients were analyzed according to the treatment arm they actually received.
The overview of adverse events (TEAEs: Treatment Emergent Adverse Events; SAEs: Serious Adverse Events; AESI: Adverse Events of Special Interest) is presented in Table 13.

[2] = target: T1, UGT1A4 (Homo sapiens, UniProt P22310); conditions: cited from earlier work
T1 sequence (P22310 29-534): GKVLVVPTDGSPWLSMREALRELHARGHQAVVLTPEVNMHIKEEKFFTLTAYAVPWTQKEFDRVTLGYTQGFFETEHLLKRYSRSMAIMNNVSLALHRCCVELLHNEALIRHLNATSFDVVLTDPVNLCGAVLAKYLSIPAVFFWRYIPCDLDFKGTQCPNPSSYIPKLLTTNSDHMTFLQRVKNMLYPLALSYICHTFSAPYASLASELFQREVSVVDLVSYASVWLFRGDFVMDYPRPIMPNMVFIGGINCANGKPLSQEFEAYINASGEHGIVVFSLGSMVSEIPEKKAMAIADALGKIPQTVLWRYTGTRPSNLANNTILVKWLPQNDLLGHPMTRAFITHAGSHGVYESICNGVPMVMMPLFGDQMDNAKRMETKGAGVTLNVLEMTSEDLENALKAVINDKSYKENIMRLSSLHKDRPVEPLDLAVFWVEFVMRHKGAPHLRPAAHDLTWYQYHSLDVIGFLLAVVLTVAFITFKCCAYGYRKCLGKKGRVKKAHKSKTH

[3] = test system: estrogen receptor (ER)-positive, HER2-negative locally advanced or metastatic breast cancer; assay: AMEERA-3 open label randomized Phase 2 trial, efficacy (PFS, OS, ORR, CBR, DCR per RECIST 1.1 by ICR); type: in vivo, human
[4] = target: T2, UGT1A1 (Homo sapiens, UniProt P22309); conditions: cited from earlier work
T2 sequence (P22309 26-533): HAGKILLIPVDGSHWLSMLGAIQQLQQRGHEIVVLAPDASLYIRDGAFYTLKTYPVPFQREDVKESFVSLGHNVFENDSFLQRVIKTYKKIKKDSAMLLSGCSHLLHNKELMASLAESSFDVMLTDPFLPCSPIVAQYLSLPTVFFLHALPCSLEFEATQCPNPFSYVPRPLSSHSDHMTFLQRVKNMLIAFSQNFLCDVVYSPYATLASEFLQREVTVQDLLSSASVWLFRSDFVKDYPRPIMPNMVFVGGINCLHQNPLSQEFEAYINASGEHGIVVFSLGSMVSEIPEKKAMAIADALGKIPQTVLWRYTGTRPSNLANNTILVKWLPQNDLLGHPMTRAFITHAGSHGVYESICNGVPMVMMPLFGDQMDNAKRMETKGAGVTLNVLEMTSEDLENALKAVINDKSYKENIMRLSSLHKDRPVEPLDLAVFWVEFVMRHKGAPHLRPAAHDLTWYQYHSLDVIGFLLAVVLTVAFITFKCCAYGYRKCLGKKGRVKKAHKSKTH

[5] = amcenestrant 400 mg QD, Kaplan-Meier

Question: Which Bradycardia/QTc prolongation ([1]; amcenestrant treatment arm) does the source give for `O=C(O)c1ccc2c(c1)CCCC(c1ccc(Cl)cc1Cl)=C2c1ccc(O[C@H]2CCN(CCCF)C2)cc1` [Amcenestrant, 6-(2,4-dichlorophenyl)-5-[4-[(3S)-1-(3-fluoropropyl)pyrrolidin-3-yl]oxyphenyl]-8,9-dihydro-7H-benzo[7]annulene-2-carboxylic acid] here?
Answer: The Bradycardia/QTc prolongation was “no bradycardia/QTc prolongation is observed”.

Question: And the Gastrointestinal disorders ([1]; mostly of Grade 1 or 2)?
Answer: Its Gastrointestinal disorders is 44.8%.

Question: And the “Skin and subcutaneous tissue disorders” value ([1]; mostly of Grade 1 or 2)?
Answer: The value was 18.9%.

Question: And the “Participants with any AESI, %” value ([1]; safety population)?
Answer: The value was “(0.7) %”.

Question: And the “Participants with any TEAE leading to treatment discontinuation, %” value ([1]; safety population)?
Answer: The value was “(3.5) %”.

Question: And the “Participants with any TEAE, %” value ([1]; safety population)?
Answer: The value was “(82.5) %”.

Question: What about the “Participants with any grade ≥3 TEAE, %” value ([1]; safety population) of the same compound?
Answer: Its value is “(21.7) %”.

Question: And the “Participants with any treatment emergent SAE, %” value ([1]; safety population)?
Answer: Its value is “(16.1) %”.

Question: And the “Participants with any treatment-related TEAE, %” value ([1]; safety population)?
Answer: The value was “(44.8) %”.

Question: What about the “Participants with any grade 5 TEAE, %” value ([1]; safety population, during the treatment period) of the same compound?
Answer: The value was “(3.5) %”.

Question: And the “Substrate of UGT1A4” value [2]?
Answer: Its value is “substrate”.

Question: And the “Reduction in risk for disease progression or death” value ([3]; ESR1 mutation at baseline, amcenestrant compared to PCEM)?
Answer: Its value is 10.0%.

Question: And the “Progression-free survival rate at 12 months” value [3, 5]?
Answer: The value was 20.4%.

Question: What about the “Progression-free survival rate at six months” value [3, 5] of the same compound?
Answer: The value was 35.5%.

Question: What about the “Substrate of UGT1A1” value [4] of the same compound?
Answer: Its value is “substrate”.
